The values that follow come from ChEMBL document CHEMBL1201862, “PubChem BioAssay data set” (2004).

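Cells were grown in 96-well plates and exposed to each compound for 48 hours at five concentrations; endpoints were interpolated linearly between bracketing concentrations, or set to the highest concentration if not reached. GI50 = concentration required for 50% inhibition of growth.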 Activity calls are given as the source filed them. Cut-off read from the data, not from the text of the source: active = GI50 up to about 1.1 µM and inactive = higher. A value given as a limit tells only on which side of the number the result lay.

Some test systems named below: NCI-H522; HT-29; HCT-116; HCC 2998; SR; OVCAR-3; SNB-75; SW-620; 786-0; CAKI-1; UACC-62; SNB-19; RPMI-8226; COLO 205; HOP-62; SK-MEL-28.
Holding throughout (experiment): inhibition of tumour cell growth, NCI panel, 48 h

For the molecule `O=[N+]([O-])c1cc(I)cc(/C=N/NS(=O)(=O)c2ccc(F)cc2)c1O`, the GI50 in the assay on NCI-H522 is 20.7 µM (inactive); in the assay with HT-29, 18.7 µM (inactive); in the assay on HCT-116, 22.9 µM (inactive); in the assay on HCC 2998, 33 µM (inactive); with SR, 22.3 µM (inactive); in the assay on OVCAR-3 it was 19 µM (inactive). In addition, the GI50 in the assay with SNB-75 was 25 µM (inactive); in the assay on SW-620 it was 32.4 µM (inactive); in the assay with 786-0, 28.4 µM (inactive); with CAKI-1, 26.2 µM (inactive); with UACC-62, 20.3 µM (inactive); in the assay with SNB-19, 31 µM (inactive). Also, the GI50 with RPMI-8226 is 22.1 µM (inactive); in the assay on COLO 205, 18.3 µM (inactive); in the assay with HOP-62 it was 26.2 µM (inactive); in the assay on SK-MEL-28, 29.4 µM (inactive).

With `Cc1c2n(c3ccccc13)CC1C2N(C)OC1(C)C` (stereo not drawn), the GI50 in the assay on NCI-H522, with HT-29, in the assay with HCT-116, with HCC 2998, in the assay on SR and in the assay on OVCAR-3 was > 100 µM (inactive) in each case. Further, the GI50 in the assay with SNB-75 was 81.5 µM (inactive); in the assay with 786-0, > 100 µM (inactive); in the assay with CAKI-1, > 100 µM (inactive); with UACC-62, > 100 µM (inactive); in the assay with SNB-19, > 100 µM (inactive); in the assay on RPMI-8226, > 100 µM (inactive). For the same molecule, the GI50 was > 100 µM (inactive) in the assay on COLO 205, 83.8 µM (inactive) in the assay on HOP-62 and > 100 µM (inactive) with SK-MEL-28.

In the case of `Cc1nc2cc3nc4ccccc4c(O)c3cc2s1`, the GI50 in the assay on NCI-H522, in the assay with HT-29, with HCT-116, in the assay on HCC 2998, with SR and in the assay on OVCAR-3 was > 100 µM (inactive) each time. Moreover, the GI50 in the assay on SNB-75, in the assay with SW-620, with 786-0, with CAKI-1, with UACC-62 and in the assay with SNB-19 was > 100 µM (inactive) in each case. In addition, the GI50 in the assay on RPMI-8226, in the assay with COLO 205 and with HOP-62 was > 100 µM (inactive) throughout.

For the molecule `O=C(NS(=O)(=O)c1ccccc1)C(Cc1ccccc1)C(Cc1ccccc1)C(=O)NS(=O)(=O)c1ccccc1` (stereo not drawn), the GI50 with NCI-H522, in the assay on HT-29, with HCT-116, in the assay on HCC 2998, in the assay on SR and in the assay on OVCAR-3 was > 100 µM (inactive) in each case. The GI50 with SNB-75, in the assay with SW-620, with 786-0, in the assay on CAKI-1, in the assay with UACC-62 and in the assay on SNB-19 was > 100 µM (inactive) in each case. The GI50 with RPMI-8226, in the assay on COLO 205, in the assay with HOP-62 and in the assay with SK-MEL-28 was > 100 µM (inactive) in each case.

With `O=[N+]([O-])c1ccc(-c2csc(=[N+]3CCCCC3)s2)cc1`, the GI50 with NCI-H522 was 3.61 µM (inactive); in the assay with HT-29, 6.04 µM (inactive); in the assay on HCT-116 it was 28.3 µM (inactive); in the assay on HCC 2998 it was 21.1 µM (inactive); in the assay with SR, 11.1 µM (inactive); in the assay with OVCAR-3, 13.9 µM (inactive). The GI50 in the assay on SNB-75 was 3.61 µM (inactive); with SW-620, 13.2 µM (inactive); in the assay with 786-0, 34.4 µM (inactive); in the assay with CAKI-1, 75.7 µM (inactive); in the assay on UACC-62, 34.4 µM (inactive); in the assay with SNB-19, 4.88 µM (inactive). Besides, the GI50 is 20.2 µM (inactive) in the assay with RPMI-8226, 2.26 µM (inactive) with COLO 205, 3.1 µM (inactive) in the assay on HOP-62 and 36.5 µM (inactive) in the assay with SK-MEL-28.

`O=S1(=O)c2ccccc2N(O)C2=NCCN21`: the GI50 in the assay with NCI-H522, in the assay with HT-29, in the assay with HCT-116, in the assay with HCC 2998, in the assay on SR and in the assay on OVCAR-3 was > 100 µM (inactive) each time. Further, the GI50 with SNB-75, in the assay with SW-620, in the assay on 786-0, with CAKI-1, in the assay on UACC-62 and in the assay with SNB-19 was > 100 µM (inactive) each time. For the same molecule, the GI50 in the assay with RPMI-8226, in the assay on COLO 205, with HOP-62 and in the assay with SK-MEL-28 was > 100 µM (inactive) each time.

In the case of `CCOC(=O)C1(c2ccccc2)CCCNCC1` (stereo not drawn), the GI50 with NCI-H522 was 7.91 µM (inactive); with HT-29, 77.8 µM (inactive); in the assay on HCT-116, 58.9 µM (inactive); with HCC 2998, > 100 µM (inactive); in the assay with SR it was 33.1 µM (inactive); in the assay with OVCAR-3, 74.6 µM (inactive). The GI50 in the assay with SNB-75, in the assay on SW-620, in the assay with 786-0, in the assay on CAKI-1, with UACC-62 and with SNB-19 was > 100 µM (inactive) each time. Further, the GI50 in the assay with RPMI-8226 is 88.1 µM (inactive); in the assay on COLO 205, > 100 µM (inactive); with HOP-62 it was 32.4 µM (inactive); in the assay with SK-MEL-28, > 100 µM (inactive).

Turning to `CCC1C(=O)OCc2c1cc1n(c2=O)CCC12OCCO2` (stereo not drawn), the GI50 was > 100 µM (inactive) with NCI-H522; > 100 µM (inactive) with HT-29; > 100 µM (inactive) in the assay with HCT-116; 63.8 µM (inactive) in the assay with HCC 2998; > 100 µM (inactive) in the assay on SR; > 100 µM (inactive) in the assay on SNB-75. Besides, the GI50 in the assay on SW-620, in the assay on 786-0, with CAKI-1, in the assay on UACC-62, in the assay on SNB-19 and in the assay on RPMI-8226 was > 100 µM (inactive) in each case. In addition, the GI50 with COLO 205, with HOP-62 and with SK-MEL-28 was > 100 µM (inactive) throughout.

For the molecule `N#CC(C(=O)C(=O)NCCCNC(=O)C(=O)C(C#N)c1ccccc1)c1ccccc1` (stereo not drawn), the GI50 with NCI-H522, with HT-29, with HCT-116, with HCC 2998, in the assay with SR and in the assay with OVCAR-3 was > 100 µM (inactive) each time. Further, the GI50 with SNB-75 was 30.1 µM (inactive); in the assay with SW-620 it was > 100 µM (inactive); in the assay with 786-0, > 100 µM (inactive); in the assay on CAKI-1, 0.0167 µM (active); in the assay on UACC-62 it was > 100 µM (inactive); in the assay with SNB-19, 5.33 µM (inactive). Moreover, the GI50 in the assay with RPMI-8226, in the assay on COLO 205, in the assay on HOP-62 and in the assay on SK-MEL-28 was > 100 µM (inactive) throughout.

In the case of `Cc1ccc(S(=O)(=O)C2c3nc4ccccc4cc3-c3nc4ccccc4nc32)cc1` (stereo not drawn), the GI50 with NCI-H522 is > 100 µM (inactive); with HCT-116, > 100 µM (inactive); in the assay on HCC 2998, > 100 µM (inactive); in the assay with SR it was > 100 µM (inactive); in the assay with OVCAR-3, > 100 µM (inactive); in the assay on SNB-75, 53.8 µM (inactive). The GI50 with SW-620, in the assay on 786-0, with CAKI-1, with UACC-62, in the assay on SNB-19 and in the assay on RPMI-8226 was > 100 µM (inactive) each time. Also, the GI50 in the assay on COLO 205, in the assay with HOP-62 and in the assay on SK-MEL-28 was > 100 µM (inactive) throughout.

For `Cc1cc(C)nc(Sc2c([N+](=O)[O-])ncn2C)n1`, the GI50 in the assay on NCI-H522, in the assay on HT-29, with HCT-116, in the assay with HCC 2998, in the assay with SR and in the assay with OVCAR-3 was > 100 µM (inactive) each time. Moreover, the GI50 in the assay with SNB-75, with SW-620, with 786-0, with CAKI-1, in the assay with UACC-62 and in the assay with SNB-19 was > 100 µM (inactive) in each case. The GI50 with RPMI-8226, with COLO 205, in the assay with HOP-62 and in the assay with SK-MEL-28 was > 100 µM (inactive) in each case.

`CC(=O)OCC1OC(OC2C(CSC3OC(COC(C)=O)C(OC(C)=O)C(OC(C)=O)C3OC(C)=O)OC(OC(C)=O)C(OC(C)=O)C2OC(C)=O)C(OC(C)=O)C(OC(C)=O)C1OC(C)=O` (stereo not drawn): the GI50 with NCI-H522, in the assay with HT-29, in the assay on HCT-116, in the assay with HCC 2998, with SR and with OVCAR-3 was > 100 µM (inactive) in each case. Further, the GI50 in the assay with SNB-75, in the assay with SW-620, with 786-0, in the assay on CAKI-1, with UACC-62 and with SNB-19 was > 100 µM (inactive) throughout. For the same molecule, the GI50 in the assay on RPMI-8226, in the assay on COLO 205, in the assay on HOP-62 and in the assay on SK-MEL-28 was > 100 µM (inactive) throughout.
